Results on five compounds are retold here after patent US20070224648A1, “Methods and compositions for the diagnosis of treatment of type 2 diabetes” (The Chancellor, Masters and Scholars of the University of …, priority 2005, published 2007).

Assay [1] concerns the target T1, KATP channels from C57BL/6J β-cells (Mus musculus, UniProt Q61743).
T1 construct: inside-out patches excised from a C57BL/6J or CH3/HeH β-cell; endogenous in cells; host or cells: primary pancreatic β-cells isolated from C57BL/6J and C3H/HeH mice
Kind of assay: ATP sensitivity of KATP channels in inside-out patches. The assay is classed as biochemical. As to the method:
The ATP sensitivity of KATP channels was measured at −60 mV in inside-out patches. Currents were digitized at 5 kHz and filtered at 2 kHz. The pipette (extracellular) contained (mmol/l): 140 KCl, 2.6 CaCl2, 1.2 MgCl2, 10 HEPES (pH 7.4 with KOH). The bath (intracellular) solution contained (mmol/l): 107 KCl, 1 MgCl2, 1 CaCl2, 10 HEPES (pH 7.2 with KOH), and K2ATP as indicated.
Concentration-response relations were obtained by alternating test solutions with control (glucose- or ATP-free) solution. The control conductance was taken as the mean of that obtained in control solution before and after application of the test agent. The current in the presence of glucose or nucleotide (I) is plotted as a fraction of that obtained in control solution (IC). Data were fit with the Hill equation: I/IC=1/(1+([X]/IC50)h) where [X] is the concentration of glucose or ATP, IC50 is the concentration giving half-maximal inhibition of the current and h is the Hill coefficient. Data are given as mean±one S.E.M.

Assay [2] relates to type-2 diabetic human islets. Particulars: cited from earlier work.
In the next assay the test system is rodent islets. Particulars: cited from earlier work.
The test system of assay [3] is human and rodent pancreatic islets. Particulars: preincubation in 15 μM metformin; cited from earlier work.
Assay [4] deals with isolated pancreatic islets. Kind of assay: Insulin secretion from isolated pancreatic islets.
The test system of assay [5] is isolated wild-type islets. The assay can be described thus: Glucose utilization in isolated pancreatic islets. It counts as cell-based, mouse. Particulars: H2O2, 20 mM glucose. As for the experimental part: FIG. 19: Glucose utilization in pancreatic islets isolated wild-type and homozygous NNT mutant mice (G745D). Each data point is the mean of 6 replicates each of 5 islets. Glucose utilization was measured as described in Ashcroft S J H, Weerasinghe L C C, Bassett J M, Randle P J: The pentose cycle and insulin release in mouse pancreatic islets. Biochem J (1972) 126, 525-532. Briefly, And these islets were placed in 20 microlitres of medium containing [3H]glucose and various concentrations of unlabelled glucose (as indicated). The tubes were placed in outer vials containing 0.5 ml of water. After 2-hours of incubation, metabolism was terminated by applying 5 microlitres of HCl. Then these samples were incubated for more than 18-24 hours to allow [3H]water in the incubation tube to equilibrate with the water in outer vial. Then, radioactivity of the water in the outer vial was measured. Control samples without islets were used to correct for background counts.
FIG. 20: Effect of H2O2 on glucose utilization in isolated wild-type islets. Each data point is the mean of 6 replicates each of 5 islets.

Assay [6] concerns β-cells isolated from C57BL/6J and C3H/HeH mice. The assay can be described thus: Fura-2 imaging of intracellular calcium in isolated β-cells. It counts as cell-based, mouse. Particulars: 500 μmol/l tolbutamide; C57BL/6J and C3H/HeH β-cells. As for the experimental part: Islet cells were cultured on 35 mm Fluorodishes (World Precision Instruments, Stevenage, UK) and incubated with 3 μM Fura-2-AM (Molecular Probes, Paisley, UK) for 40 min at 37° C. They were imaged at room temperature (20-24° C.) using an IonOptix fluorescence system (Boston, Mass.), with 340 nm and 380 nm dual excitation. The 510 nm emission ratio was collected at 1 Hz. Background subtraction was performed by measuring fluorescence from a cell-free region in the field of view. Cells were perfused continuously with extracellular solution (as in perforated-patch experiments), plus glucose or tolbutamide as indicated. Only data from cells that responded to 500 μmol/l tolbutamide were analysed.

The test system of assay [7] is MIN6 cells. The assay can be described thus: Fura-2 calcium imaging in MIN6 cells. The assay is classed as cell-based. Particulars: for calcium response to glucose: 1 mM glutathione for 4 hours, Nnt siRNA transfected cells. As for the experimental part:
MIN6 cells were cultured on 35mm Fluorodishes (World Precision Instruments) and incubated with 3 μM Fura-2-AM (Molecular Probes) for 40 min at 37° C. They were imaged at room temperature (20-24° C.) using an IonOptix fluorescence system (Boston, Mass.), with 340 nm and 380 nm dual excitation. The 510 nm emission ratio was collected at 1 Hz. Background subtraction was performed by measuring fluorescence from a cell-free region in the field of view. Cells were perfused continuously with extracellular solution containing (mM): 137 NaCl, 5.6 KCl, 2.6 CaCl2, 1.2 MgCl2, 10 HEPES (pH 7.4 with NaOH) plus glucose or tolbutamide as indicated.

The subject of assay [8] is MIN6 cells. Kind of assay: Insulin secretion from MIN6 cells. The assay is classed as cell-based. Particulars: for insulin secretion: tolbutamide 200 μM; for insulin secretory response: 1 mM glutathione for 4 hours, Nnt siRNA transfected cells.

SMILES strings stand for the structures.

T1 sequence (Q61743 whole entry): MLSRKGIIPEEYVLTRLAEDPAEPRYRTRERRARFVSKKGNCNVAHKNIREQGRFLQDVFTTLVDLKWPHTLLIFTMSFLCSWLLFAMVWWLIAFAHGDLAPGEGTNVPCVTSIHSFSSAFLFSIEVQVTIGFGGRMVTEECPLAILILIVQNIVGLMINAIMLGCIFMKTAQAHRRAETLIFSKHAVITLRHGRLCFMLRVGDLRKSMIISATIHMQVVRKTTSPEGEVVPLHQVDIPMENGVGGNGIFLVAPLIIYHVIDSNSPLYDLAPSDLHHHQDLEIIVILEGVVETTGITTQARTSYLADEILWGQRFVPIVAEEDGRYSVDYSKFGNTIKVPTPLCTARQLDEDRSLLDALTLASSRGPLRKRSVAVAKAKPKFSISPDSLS
T1 sequence (B2RUS7 1-1588 partner): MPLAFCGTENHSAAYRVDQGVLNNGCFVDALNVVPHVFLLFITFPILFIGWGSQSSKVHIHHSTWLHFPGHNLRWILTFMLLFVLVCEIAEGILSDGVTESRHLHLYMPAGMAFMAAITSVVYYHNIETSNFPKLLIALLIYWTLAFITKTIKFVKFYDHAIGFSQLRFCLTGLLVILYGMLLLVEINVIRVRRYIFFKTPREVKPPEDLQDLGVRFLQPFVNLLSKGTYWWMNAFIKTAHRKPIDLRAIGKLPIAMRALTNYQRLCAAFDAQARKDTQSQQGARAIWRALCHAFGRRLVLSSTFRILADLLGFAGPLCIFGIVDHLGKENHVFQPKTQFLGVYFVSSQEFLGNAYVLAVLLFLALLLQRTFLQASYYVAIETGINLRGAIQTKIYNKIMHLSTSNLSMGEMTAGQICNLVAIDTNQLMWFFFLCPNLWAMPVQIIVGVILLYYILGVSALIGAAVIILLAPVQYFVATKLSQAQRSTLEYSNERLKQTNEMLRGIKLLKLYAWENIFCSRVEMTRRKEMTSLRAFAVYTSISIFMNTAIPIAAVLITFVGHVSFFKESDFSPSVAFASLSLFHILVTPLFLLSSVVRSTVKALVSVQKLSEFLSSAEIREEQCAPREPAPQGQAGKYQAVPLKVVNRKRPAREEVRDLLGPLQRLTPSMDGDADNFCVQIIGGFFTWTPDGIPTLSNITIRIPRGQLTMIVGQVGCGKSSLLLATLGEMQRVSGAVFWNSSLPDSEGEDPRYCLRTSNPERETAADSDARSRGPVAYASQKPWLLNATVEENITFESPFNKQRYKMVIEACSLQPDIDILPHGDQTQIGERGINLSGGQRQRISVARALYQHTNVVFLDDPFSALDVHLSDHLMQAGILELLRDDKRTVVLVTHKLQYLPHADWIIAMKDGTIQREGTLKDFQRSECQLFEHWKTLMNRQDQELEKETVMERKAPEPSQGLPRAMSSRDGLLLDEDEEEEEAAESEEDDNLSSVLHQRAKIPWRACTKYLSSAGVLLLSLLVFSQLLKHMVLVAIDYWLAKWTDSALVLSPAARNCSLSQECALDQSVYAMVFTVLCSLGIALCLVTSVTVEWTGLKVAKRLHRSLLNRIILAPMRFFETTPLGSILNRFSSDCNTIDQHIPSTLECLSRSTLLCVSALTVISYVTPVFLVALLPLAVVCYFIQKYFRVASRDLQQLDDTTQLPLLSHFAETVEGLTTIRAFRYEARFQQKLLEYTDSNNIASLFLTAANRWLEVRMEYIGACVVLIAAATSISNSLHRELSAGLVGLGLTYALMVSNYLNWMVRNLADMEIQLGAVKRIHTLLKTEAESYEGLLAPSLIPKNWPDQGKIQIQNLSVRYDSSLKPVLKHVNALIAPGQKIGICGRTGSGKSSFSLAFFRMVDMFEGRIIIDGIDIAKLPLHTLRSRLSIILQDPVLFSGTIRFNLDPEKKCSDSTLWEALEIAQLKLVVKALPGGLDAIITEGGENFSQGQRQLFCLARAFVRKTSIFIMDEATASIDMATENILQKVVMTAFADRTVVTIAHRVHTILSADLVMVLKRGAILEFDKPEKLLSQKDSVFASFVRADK

With `Nc1ncnc2c1ncn2[C@@H]1O[C@H](COP(=O)(O)OP(=O)(O)OP(=O)(O)O)[C@@H](O)[C@H]1O` [ATP], the “Hill coefficient h, ATP on KATP channel activity” value in [1] (inside-out patches, n=5) turned out to be 0.89±0.06. The IC50 in [1] (read-out: half-maximal inhibition of C57BL/6J KATP channels by ATP (IC50)) is 10 µM.

Regarding `CN(C)C(=N)N=C(N)N` [metformin], in [2] (preincubation in 15 μM metformin), the insulin secretion result was “partially restores insulin secretion in type-2 diabetic human islets”. Moreover, the glucose-stimulated insulin secretion result with rodent islets (incubation at 1 mM metformin) is recorded as “reduces glucose-stimulated insulin secretion”; in assay [4] (Nnt-G745D islets, 24-hour preincubation in 15 μM metformin) it was “restored glucose-stimulated insulin secretion in pancreatic islets from the Nnt-G745D mutant mouse”; in assay [4] (Nnt-G745D islets, 24-hour preincubation in 15 μM metformin, listed as Metformin) it was “restores insulin secretion in Nnt mouse pancreatic islets”; in assay [4] (WT islets, 24-hour preincubation in 15 μM metformin) it was “little effect on wild-type (WT) pancreatic islets”; in [4] (acute exposure to metformin) it was “without effect”. Also, the “protection from deleterious effects of elevated lipids” value in assay [3] was “protects human and rodent pancreatic islets from the deleterious effects of elevated lipids”.

In the case of `OO` [H2O2], the glucose utilization entry in assay [5] is recorded as “significantly increases glucose utilization”. In the assay on rodent islets (H2O2, rodent β-cells), the insulin secretion result is recorded as “inhibits insulin secretion”.

On to `CCCCNC(=O)NS(=O)(=O)c1ccc(C)cc1` [tolbutamide], for which the “change in [Ca2+]i” value in assay [6] is “rise in [Ca2+]i”. For the same compound, the “increase in [Ca]i” value in the assay on MIN6 cells [7] (tolbutamide 200 μM, nonsense vs Nnt siRNA transfected cells) was “stimulated a similar increase in [Ca]i in both cells transfected with nonsense and Nnt siRNA”. Besides, the calcium response entry in the assay on MIN6 cells [7] (tolbutamide 200 μM, nonsense, Nnt, UCP2 or UCP2+Nnt siRNA transfected cells) is on record as “stimulated a calcium response”. Also, the insulin secretion result with MIN6 cells [8] (nonsense vs Nnt siRNA transfected cells) was “elicited equivalent responses in both nonsense and Nnt siRNA transfected cells”; with MIN6 cells [8] (nonsense, Nnt, UCP2, UCP2/Nnt or Gck siRNA transfected cells) it was “stimulated a calcium response and insulin secretion”; in assay [4] (tolbutamide, B6-TG vs B6-TG negative islets), “stimulated secretion comparably in both strains”.

`N[C@@H](CCC(=O)N[C@@H](CS)C(=O)NCC(=O)O)C(=O)O` [glutathione]: the “calcium response to glucose” value in the assay with MIN6 cells [7] is on record as “partially reversed the impaired calcium”; in the assay on MIN6 cells [7] (listed as Glutathione), “partially restores the calcium response”. For the same compound, the insulin secretory response entry is “partially reversed the impaired calcium and insulin secretory responses” with MIN6 cells [8]; “partially restores the insulin secretory response” in the assay with MIN6 cells [8] (listed as Glutathione). The “secretory response to glucose” value in assay [2] (24-hour culture with 30 μM glutathione) was “improved significantly”.
